Measured values published in ChEMBL document CHEMBL1201862, “PubChem BioAssay data set” (2004).
One block for each compound: values may come before it. The source made the active and inactive calls.

What was measured:
Hexokinase-1 = Hexokinase-1 (Homo sapiens, UniProt P19367); assay: SAR analysis of small molecule inhibitors of hexokinase domain containing I (HKDC1) in the hexokinase 1 selectivity assay. [Related pubchem assays (depositor defined):AID493160, AID493190]; type: functional
Hexokinase HKDC1 = target: T1, Hexokinase HKDC1 (Homo sapiens, UniProt Q2TB90); assay: SAR analysis of small molecule inhibitors of hexokinase domain containing I (HKDC1). [Related pubchem assays (depositor defined):AID493160, AID493190]; type: functional
T1 sequence (Q2TB90 whole entry): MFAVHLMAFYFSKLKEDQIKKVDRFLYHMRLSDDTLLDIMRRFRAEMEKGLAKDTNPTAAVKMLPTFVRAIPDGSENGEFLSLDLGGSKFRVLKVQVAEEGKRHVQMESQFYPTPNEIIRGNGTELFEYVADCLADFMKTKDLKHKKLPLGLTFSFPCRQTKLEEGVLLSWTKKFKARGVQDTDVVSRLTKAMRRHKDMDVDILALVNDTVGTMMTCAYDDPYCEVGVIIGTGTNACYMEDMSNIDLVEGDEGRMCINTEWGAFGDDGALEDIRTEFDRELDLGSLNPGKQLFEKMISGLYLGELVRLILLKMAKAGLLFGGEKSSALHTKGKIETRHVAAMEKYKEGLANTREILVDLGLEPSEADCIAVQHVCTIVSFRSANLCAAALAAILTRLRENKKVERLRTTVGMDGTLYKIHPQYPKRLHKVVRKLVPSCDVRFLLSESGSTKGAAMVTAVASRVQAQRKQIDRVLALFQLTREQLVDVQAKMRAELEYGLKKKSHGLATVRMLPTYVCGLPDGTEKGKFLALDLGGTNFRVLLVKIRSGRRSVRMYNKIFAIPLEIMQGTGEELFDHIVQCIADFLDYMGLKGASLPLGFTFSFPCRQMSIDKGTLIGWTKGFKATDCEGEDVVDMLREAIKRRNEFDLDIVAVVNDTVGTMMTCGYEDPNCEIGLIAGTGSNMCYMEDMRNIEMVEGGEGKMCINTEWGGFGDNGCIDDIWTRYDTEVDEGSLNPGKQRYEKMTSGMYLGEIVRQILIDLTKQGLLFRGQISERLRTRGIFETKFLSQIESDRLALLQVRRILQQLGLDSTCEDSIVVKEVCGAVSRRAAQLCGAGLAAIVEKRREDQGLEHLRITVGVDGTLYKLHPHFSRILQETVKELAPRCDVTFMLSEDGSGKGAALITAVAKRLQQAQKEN

[1] = target: T2, Rac GTPase-activating protein 1 (Homo sapiens, UniProt Q9H0H5); assay: MgcRacGAP GTPase-activating activity inhibitors, confirmation, biochemical, ADP Hunter fluorescence, primary and confirmatory (AID 624330); type: functional
T2 sequence (Q9H0H5 whole entry): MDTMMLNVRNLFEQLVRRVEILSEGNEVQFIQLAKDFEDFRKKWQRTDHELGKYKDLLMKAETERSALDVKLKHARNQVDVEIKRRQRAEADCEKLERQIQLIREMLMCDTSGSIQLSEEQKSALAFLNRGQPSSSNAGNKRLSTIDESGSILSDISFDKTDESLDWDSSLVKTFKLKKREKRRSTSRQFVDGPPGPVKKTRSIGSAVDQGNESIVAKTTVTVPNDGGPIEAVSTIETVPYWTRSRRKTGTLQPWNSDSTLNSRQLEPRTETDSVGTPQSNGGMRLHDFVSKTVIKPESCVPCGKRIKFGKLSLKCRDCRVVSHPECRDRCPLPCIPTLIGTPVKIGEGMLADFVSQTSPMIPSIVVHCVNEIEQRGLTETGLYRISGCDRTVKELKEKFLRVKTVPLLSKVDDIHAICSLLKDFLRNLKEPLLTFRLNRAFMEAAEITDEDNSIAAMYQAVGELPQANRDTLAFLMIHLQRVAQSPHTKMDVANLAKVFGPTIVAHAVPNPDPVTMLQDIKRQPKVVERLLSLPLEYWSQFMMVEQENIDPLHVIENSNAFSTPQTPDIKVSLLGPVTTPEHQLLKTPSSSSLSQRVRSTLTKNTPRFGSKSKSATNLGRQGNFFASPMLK

[2] = target: T3, Heat shock 70 kDa protein 1A (Homo sapiens, UniProt P0DMV8); assay: Hsp70 inhibitors, biochemical, TR-FRET (AID 786)
T3 sequence (P0DMV8 whole entry): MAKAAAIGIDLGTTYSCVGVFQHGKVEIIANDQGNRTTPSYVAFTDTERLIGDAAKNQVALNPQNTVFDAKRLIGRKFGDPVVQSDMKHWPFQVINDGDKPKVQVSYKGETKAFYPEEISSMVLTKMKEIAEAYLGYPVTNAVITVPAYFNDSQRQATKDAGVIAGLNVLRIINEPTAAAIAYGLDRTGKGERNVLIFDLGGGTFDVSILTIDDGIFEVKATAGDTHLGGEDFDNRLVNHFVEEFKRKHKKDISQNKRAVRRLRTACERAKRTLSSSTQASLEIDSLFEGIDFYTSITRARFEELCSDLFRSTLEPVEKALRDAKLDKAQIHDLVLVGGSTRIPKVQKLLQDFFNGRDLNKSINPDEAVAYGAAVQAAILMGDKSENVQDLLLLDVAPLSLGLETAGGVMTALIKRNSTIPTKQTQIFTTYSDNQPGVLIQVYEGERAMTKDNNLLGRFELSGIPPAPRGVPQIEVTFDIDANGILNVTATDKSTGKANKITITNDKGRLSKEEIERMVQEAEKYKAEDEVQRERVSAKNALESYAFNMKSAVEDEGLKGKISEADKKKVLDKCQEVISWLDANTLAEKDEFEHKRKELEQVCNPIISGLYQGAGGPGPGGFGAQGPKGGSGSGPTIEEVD

[3] = THP-1 cell cytotoxicity, dose response, cytotoxicity control for Vif-APOBEC3G degradation inhibitor project, THP-1 cells (AID 1117359); type: functional; conditions: Human immunodeficiency virus 1, THP-1
[4] = target: Induced myeloid leukemia cell differentiation protein Mcl-1 (Homo sapiens, UniProt Q07820); type: functional
[5] = target: T4, RNA-binding protein pos-1 (Caenorhabditis elegans, UniProt G5EF15); assay: inhibitors of POS-1/mex-3 RNA binding, dose response, biochemical, fluorescence polarization (AID 1964);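 further: purified POS-1 fused to maltose binding protein made in E. coli; potency of compounds blocking POS-1 binding to fluorescent RNA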
T4 sequence (G5EF15 whole entry): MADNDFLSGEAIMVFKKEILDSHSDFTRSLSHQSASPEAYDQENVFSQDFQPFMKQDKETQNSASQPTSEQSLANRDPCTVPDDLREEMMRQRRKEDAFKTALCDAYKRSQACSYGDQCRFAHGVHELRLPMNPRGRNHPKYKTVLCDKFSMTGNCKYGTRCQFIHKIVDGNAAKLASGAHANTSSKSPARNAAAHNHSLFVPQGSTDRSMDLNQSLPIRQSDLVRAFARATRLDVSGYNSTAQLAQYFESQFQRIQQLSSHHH

[6] = target: T3, Heat shock 70 kDa protein 1A; assay: Hsp70 inhibitors, probe displacement, primary screen, biochemical, fluorescence polarization (AID 583)
[7] = target: Beta-adrenergic receptor kinase 1 (Homo sapiens, UniProt P25098); assay: aptamer displacement from bead-bound GRK2 – biochemical, cherry pick 1, bead flow cytometry, dose response (AID 504500)
Beta-adrenergic receptor kinase 1, sequence (P25098 whole entry): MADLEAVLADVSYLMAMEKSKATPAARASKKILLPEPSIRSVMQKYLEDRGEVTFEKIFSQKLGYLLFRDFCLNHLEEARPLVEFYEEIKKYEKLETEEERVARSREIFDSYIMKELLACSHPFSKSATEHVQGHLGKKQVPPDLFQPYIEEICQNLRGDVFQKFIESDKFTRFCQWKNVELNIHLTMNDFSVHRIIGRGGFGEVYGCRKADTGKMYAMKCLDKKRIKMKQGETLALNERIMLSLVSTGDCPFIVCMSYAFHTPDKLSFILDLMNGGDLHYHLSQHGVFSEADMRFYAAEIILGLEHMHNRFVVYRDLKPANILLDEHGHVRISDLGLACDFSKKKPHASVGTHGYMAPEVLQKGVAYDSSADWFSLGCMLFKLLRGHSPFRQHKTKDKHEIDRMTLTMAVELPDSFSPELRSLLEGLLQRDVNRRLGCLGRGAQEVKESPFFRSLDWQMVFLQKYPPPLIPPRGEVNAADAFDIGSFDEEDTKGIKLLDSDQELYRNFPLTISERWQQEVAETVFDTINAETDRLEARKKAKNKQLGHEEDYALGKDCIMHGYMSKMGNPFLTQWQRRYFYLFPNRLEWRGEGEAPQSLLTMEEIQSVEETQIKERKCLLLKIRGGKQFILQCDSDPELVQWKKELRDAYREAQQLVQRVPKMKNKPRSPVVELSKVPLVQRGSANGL

Troponin, cardiac muscle = Troponin, cardiac muscle (Homo sapiens, UniProt P19429+P45379+P63316); assay: inhibitors of cardiac thin filament calcium sensitivity, dose response, biochemical, fluorescence, cardiac regulated thin filaments, triplicate IC50 (AID 504742); type: protein-complex assay
[8] = target: DNA (cytosine-5)-methyltransferase 1 (Homo sapiens, UniProt P26358); assay: DNMT1 methyltransferase inhibitors, confirmation, biochemical, fluorescent molecular beacon (AID 602386); type: functional
DNA (cytosine-5)-methyltransferase 1, sequence (P26358 whole entry): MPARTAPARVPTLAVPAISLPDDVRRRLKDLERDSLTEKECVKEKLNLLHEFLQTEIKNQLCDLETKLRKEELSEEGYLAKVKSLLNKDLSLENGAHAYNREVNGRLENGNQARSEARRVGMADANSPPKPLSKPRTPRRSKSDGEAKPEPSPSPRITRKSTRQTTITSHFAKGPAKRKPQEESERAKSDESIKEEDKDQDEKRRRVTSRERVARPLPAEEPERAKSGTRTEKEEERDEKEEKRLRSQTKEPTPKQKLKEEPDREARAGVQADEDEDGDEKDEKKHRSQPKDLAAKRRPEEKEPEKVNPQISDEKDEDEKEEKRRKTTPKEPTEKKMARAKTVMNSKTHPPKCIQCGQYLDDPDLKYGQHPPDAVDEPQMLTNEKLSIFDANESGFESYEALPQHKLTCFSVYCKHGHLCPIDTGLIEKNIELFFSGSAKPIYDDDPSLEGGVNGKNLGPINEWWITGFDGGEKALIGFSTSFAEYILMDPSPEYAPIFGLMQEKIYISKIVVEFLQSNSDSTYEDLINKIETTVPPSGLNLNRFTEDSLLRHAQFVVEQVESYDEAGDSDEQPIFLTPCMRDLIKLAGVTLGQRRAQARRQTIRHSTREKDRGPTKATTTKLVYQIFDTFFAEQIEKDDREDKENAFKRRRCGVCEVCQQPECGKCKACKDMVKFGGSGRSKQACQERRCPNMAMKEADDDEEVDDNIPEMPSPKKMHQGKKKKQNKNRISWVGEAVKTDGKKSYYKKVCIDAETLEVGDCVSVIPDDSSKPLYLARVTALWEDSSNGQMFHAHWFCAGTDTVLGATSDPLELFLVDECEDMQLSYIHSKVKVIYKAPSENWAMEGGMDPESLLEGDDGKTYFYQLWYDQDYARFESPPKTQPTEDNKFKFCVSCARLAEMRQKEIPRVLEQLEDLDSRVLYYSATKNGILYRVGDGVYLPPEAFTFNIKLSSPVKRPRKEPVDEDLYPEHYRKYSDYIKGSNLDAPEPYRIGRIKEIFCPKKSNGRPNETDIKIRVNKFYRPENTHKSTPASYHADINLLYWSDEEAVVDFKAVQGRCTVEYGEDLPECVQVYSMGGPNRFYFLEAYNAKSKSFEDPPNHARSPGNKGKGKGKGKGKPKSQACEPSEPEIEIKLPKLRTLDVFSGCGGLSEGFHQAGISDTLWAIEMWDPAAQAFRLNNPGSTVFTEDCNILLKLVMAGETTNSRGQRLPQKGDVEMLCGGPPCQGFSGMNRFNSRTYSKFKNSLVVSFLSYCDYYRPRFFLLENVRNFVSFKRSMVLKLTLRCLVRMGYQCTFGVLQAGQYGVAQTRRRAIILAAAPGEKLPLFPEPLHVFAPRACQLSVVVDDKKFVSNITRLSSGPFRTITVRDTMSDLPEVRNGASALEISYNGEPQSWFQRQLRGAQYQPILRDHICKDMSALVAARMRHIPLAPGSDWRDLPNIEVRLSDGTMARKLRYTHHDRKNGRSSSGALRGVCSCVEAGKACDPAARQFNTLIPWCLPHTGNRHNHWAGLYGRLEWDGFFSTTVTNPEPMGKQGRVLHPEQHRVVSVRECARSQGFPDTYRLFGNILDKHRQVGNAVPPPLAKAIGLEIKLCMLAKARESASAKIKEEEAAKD

[9] = target: T5, Histone-lysine N-methyltransferase NSD2 (Homo sapiens, UniProt O96028); type: biochemical
T5 sequence (O96028 whole entry): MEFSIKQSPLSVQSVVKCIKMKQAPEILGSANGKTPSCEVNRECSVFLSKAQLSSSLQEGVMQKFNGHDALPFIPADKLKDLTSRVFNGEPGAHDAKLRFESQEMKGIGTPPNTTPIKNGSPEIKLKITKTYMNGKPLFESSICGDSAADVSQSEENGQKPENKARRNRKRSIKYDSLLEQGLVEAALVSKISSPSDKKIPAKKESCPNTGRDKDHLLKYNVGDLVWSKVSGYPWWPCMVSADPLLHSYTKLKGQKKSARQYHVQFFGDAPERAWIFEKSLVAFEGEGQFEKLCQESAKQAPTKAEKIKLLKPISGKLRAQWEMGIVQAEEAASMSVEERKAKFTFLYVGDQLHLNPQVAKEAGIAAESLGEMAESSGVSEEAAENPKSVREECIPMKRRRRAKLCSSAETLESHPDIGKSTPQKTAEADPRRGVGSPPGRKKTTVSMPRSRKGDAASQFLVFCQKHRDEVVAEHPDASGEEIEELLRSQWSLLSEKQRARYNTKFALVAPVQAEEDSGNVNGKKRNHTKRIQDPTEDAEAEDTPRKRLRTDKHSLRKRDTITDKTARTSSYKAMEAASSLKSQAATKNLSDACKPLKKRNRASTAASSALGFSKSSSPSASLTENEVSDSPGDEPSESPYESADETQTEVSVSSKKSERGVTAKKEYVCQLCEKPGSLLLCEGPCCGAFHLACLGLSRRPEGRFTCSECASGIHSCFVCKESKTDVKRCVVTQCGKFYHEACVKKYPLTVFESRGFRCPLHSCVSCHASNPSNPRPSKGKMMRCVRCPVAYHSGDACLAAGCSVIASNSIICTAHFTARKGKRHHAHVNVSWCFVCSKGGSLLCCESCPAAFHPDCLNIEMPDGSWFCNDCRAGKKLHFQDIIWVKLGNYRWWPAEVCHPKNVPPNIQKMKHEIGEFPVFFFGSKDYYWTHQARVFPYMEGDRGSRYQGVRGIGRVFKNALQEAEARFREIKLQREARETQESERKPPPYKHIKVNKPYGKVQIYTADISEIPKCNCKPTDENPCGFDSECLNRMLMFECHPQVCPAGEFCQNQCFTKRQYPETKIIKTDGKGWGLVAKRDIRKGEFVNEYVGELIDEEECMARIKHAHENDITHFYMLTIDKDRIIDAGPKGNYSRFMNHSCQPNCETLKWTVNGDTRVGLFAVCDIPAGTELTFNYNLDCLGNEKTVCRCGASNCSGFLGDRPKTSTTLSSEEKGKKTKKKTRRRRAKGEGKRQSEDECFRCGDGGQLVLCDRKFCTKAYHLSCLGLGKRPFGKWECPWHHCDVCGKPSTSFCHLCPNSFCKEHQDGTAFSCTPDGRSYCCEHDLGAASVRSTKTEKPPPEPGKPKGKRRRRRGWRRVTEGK

Large T antigen = Large T antigen (Simian virus 40, UniProt P03070); type: functional, Betapolyomavirus macacae;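 further: Confirmatory-stage PubChem screen for compounds that inhibit SV40 T antigen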
Large T antigen, sequence (P03070 whole entry): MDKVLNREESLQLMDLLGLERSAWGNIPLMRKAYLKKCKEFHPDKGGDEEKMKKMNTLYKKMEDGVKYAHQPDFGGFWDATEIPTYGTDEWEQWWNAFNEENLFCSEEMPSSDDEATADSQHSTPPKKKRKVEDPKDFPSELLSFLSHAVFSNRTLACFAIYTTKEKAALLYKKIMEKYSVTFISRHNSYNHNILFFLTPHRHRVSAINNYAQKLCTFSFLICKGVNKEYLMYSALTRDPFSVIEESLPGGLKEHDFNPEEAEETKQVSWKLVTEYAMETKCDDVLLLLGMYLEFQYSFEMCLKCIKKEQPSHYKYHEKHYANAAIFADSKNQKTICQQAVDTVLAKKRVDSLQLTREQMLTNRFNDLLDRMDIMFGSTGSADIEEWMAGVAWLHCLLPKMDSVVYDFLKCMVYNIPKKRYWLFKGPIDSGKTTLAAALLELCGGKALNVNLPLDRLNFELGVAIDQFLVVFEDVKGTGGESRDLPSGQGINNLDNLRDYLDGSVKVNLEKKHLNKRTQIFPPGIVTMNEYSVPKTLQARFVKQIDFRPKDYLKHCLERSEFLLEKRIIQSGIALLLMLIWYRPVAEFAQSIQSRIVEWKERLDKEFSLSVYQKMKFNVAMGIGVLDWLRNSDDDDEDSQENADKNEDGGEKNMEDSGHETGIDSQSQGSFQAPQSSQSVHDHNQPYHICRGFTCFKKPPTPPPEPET

[10] = target: T6, Zinc finger protein mex-5 (Caenorhabditis elegans, UniProt Q9XUB2); assay: MEX-5/TCR-2 RNA interaction inhibitors, dose response, biochemical, C. elegans, fluorescence polarization (AID 1960)
T6 sequence (Q9XUB2 whole entry): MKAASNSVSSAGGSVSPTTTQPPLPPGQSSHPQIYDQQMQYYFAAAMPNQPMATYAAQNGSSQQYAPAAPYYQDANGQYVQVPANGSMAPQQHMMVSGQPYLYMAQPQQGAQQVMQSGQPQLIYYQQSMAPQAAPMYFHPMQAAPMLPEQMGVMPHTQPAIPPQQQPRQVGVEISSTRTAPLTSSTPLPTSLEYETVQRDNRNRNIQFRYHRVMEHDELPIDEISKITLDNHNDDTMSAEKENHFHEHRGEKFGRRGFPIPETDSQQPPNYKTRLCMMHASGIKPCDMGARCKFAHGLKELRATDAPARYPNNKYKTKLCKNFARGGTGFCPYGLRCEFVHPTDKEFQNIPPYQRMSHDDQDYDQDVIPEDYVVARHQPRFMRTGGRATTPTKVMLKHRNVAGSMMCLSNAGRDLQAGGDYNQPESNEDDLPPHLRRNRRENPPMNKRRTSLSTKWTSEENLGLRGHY

ORF 73 = ORF 73 (Human herpesvirus 8, UniProt O40947); assay: inhibitors of C-LANA binding to LBS DNA, dose response, biochemical, fluorescence polarization, cherry-picked samples (AID 504725); set-up: species or system Human gammaherpesvirus 8;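 further: fluorescence polarization of a labeled DNA duplex reporting LANA DNA binding; potency is for inhibitors that block LANA binding to the DNA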
[11] = target: Beta-2 adrenergic receptor (Homo sapiens, UniProt P07550); assay: beta2AR agonists driving receptor internalization, dose response, cell-based, FAP fluorogen, flow cytometry, cherry pick 1 (AID 588763); type: functional
Beta-2 adrenergic receptor, sequence (P07550 whole entry): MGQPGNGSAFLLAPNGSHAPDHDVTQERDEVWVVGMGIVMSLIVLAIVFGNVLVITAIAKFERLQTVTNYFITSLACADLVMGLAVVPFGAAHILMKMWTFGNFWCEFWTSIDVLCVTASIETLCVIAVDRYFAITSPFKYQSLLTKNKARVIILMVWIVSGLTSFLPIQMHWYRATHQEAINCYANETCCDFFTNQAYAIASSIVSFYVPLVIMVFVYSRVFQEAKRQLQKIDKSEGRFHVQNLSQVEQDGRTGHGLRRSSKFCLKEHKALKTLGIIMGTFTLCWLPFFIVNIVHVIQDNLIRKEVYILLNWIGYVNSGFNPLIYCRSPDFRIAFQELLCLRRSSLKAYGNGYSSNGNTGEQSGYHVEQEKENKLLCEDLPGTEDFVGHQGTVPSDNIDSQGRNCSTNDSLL

Hexokinase-1, sequence (P19367 whole entry, the tested form may be a part): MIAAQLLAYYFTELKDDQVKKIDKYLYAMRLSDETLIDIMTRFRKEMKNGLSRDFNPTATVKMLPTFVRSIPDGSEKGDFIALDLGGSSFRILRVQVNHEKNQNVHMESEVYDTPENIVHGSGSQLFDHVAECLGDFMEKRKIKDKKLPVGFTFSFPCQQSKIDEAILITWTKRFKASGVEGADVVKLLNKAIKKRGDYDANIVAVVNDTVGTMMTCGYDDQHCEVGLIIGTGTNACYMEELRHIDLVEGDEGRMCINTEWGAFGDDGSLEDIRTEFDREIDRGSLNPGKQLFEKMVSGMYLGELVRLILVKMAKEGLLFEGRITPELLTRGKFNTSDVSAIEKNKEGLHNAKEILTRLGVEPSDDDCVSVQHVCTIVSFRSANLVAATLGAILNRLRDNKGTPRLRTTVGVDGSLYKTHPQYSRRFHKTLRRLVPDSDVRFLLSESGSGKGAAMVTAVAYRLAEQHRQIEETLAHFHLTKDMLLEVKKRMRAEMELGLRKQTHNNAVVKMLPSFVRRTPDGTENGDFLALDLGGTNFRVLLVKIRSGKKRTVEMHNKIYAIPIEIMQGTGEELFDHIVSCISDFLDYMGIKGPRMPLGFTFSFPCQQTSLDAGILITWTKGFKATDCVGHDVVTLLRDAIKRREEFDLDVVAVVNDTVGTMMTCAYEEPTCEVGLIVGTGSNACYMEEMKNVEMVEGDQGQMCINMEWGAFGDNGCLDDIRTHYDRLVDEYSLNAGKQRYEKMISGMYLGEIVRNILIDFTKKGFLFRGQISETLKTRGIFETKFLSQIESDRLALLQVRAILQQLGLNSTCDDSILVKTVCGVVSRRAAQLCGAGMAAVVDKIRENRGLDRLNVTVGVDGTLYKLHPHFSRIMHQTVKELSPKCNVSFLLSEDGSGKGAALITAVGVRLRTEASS

SMILES: O=c1c2ccccc2nc(/C=C/c2cccnc2)n1-c1ccccc1
IC50 (Hexokinase-1): > 80 µM (inactive) | IC50 (Hexokinase HKDC1): > 80 µM (inactive)

IC50 [1]: 66.7 µM (active) | IC50 [2]: 17.4 µM (active) | IC50 [4]: 4.73 µM (active) | EC50 [5]: 19.9 µM (active) | IC50 [6]: 21.7 µM (active) | EC50 [7]: 14.8 µM (inactive) | IC50 (Troponin, cardiac muscle): 15 µM (inactive) | IC50 [8]: 1.18 µM (active) | AC50 [9]: 2.19 µM (active) | IC50 (Large T antigen): 27.6 µM (active) | EC50 [10]: 23.7 µM (inconclusive) | AC50 (ORF 73): 18 µM (active)
SMILES: CC1=NN(c2cccc(C(=O)O)c2)C(=O)/C1=C\C=C\c1ccco1
CC50 [3]: > 40 µM (active)

EC50 [11]: 1.04 µM (active)
SMILES: CCOC(=O)N1CCN(c2nnc(-c3ccc(C)cc3)c3ccccc23)CC1
